Structures are written as SMILES.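 Five concentrations, 48 hours, 96-well plates. GI50 is the concentration that inhibits growth by half.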 Active and inactive are the calls of the source. No stated cut-off is given here; in the data, active = GI50 up to about 1.1 µM and inactive = higher. Residues, ends and D or L forms follow the SMILES beside them. *: point of attachment. Boc = CC(C)(C)OC(=O)*; OBn = c1ccc(CO*)cc1

What all share (test): NCI-60 cell line screen, 48 h
Assay [1] concerns COLO 205.
Assay [2] deals with HCC 2998.
Assay [3] concerns HOP-92.
Assay [4] deals with HT-29.
Assay [5] concerns Hs-578T.
In assay [6] the test system is K562.
The test system of assay [7] is MOLT-4.
Assay [8] relates to Malme-3M.
Assay [9] deals with NCI-H522.
In assay [10] the test system is OVCAR-3.
Assay [11] concerns OVCAR-8.
Assay [12] has as its system RXF 393.
The subject of assay [13] is SF-539.
Assay [14] relates to SN12C.
Assay [15] relates to SNB-19.
Assay [16] concerns SW-620.
Assay [17] deals with U-251.
In assay [18] the test system is UACC-257.
Assay [19] relates to M14.
Assay [20] relates to SK-MEL-28.

On to `O=c1[nH]nc(Cc2ccccc2)n1/N=C/c1ccccc1Cl`, for which the GI50 in assay [1] is > 100 µM (inactive); in [2] it was > 100 µM (inactive); in [3], 95.9 µM (inactive); in assay [4] it was > 100 µM (inactive); in assay [5] it was 43.4 µM (inactive); in [6], > 100 µM (inactive). For the same compound, the GI50 in [7] was > 100 µM (inactive); in [8], > 100 µM (inactive); in assay [9], > 100 µM (inactive); in [10] it was > 100 µM (inactive); in [11], > 100 µM (inactive); in [12], 3.56 µM (inactive). For the same compound, the GI50 in assay [13] is > 100 µM (inactive); in [14], > 100 µM (inactive); in assay [15], > 100 µM (inactive); in assay [16] it was > 100 µM (inactive); in assay [17] it was 53.1 µM (inactive); in [18] it was > 100 µM (inactive).
As to `CN(C)CCCn1c(Cn2nc3ccccc3n2)nc2cc(C(F)(F)F)ccc21`, the GI50 was 15.3 µM (inactive) in assay [1]; 7.6 µM (inactive) in [2]; 8.71 µM (inactive) in [3]; 19.7 µM (inactive) in assay [4]; 36.2 µM (inactive) in assay [5]; 16.5 µM (inactive) in [6]. Also, the GI50 is 15.3 µM (inactive) in assay [19]; 19.1 µM (inactive) in [7]; 11.6 µM (inactive) in [8]; 14.6 µM (inactive) in assay [9]; 36.7 µM (inactive) in [10]; 30.4 µM (inactive) in assay [11]. The GI50 in assay [12] was 22.1 µM (inactive); in assay [20] it was 17.4 µM (inactive); in [14], 47.8 µM (inactive); in assay [15], 50.7 µM (inactive); in assay [16] it was 34.2 µM (inactive); in assay [17], 26.4 µM (inactive). Further, in [18], the GI50 is 16.8 µM (inactive).
Regarding `CCC(O)(Cc1ccc(OC)cc1)c1ccc(OC)cc1` (configuration not stated), the GI50 in assay [1], in assay [2], in assay [3], in assay [4], in assay [5] and in assay [6] was > 100 µM (inactive) each time. Further, the GI50 in [19], in [7], in [8], in [9], in [10] and in [11] was > 100 µM (inactive) in each case. The GI50 in assay [12], in assay [13], in assay [14], in assay [15], in assay [16] and in [17] was > 100 µM (inactive) each time. The GI50 in assay [18] was > 100 µM (inactive).
As to `Nc1nc(Cl)c2ncn(Cc3ccccc3CCl)c2n1`, the GI50 was 5.05 µM (inactive) in assay [1]; 2.99 µM (inactive) in assay [2]; 6.52 µM (inactive) in assay [3]; 3.85 µM (inactive) in assay [4]; 7.76 µM (inactive) in assay [5]; 4.43 µM (inactive) in assay [6]. The GI50 in [19] was 5.73 µM (inactive); in assay [7], 5.19 µM (inactive); in assay [8], 3.36 µM (inactive); in [9] it was 2.98 µM (inactive); in assay [10], 3.37 µM (inactive); in assay [11], 3.86 µM (inactive). In addition, the GI50 was 18 µM (inactive) in assay [13]; 4.81 µM (inactive) in assay [20]; 2.74 µM (inactive) in assay [14]; 6.05 µM (inactive) in assay [15]; 3.3 µM (inactive) in assay [16]; 3.46 µM (inactive) in assay [17]. The GI50 in assay [18] is 13.1 µM (inactive).
On to `CC(C)CC(NC(=O)OC(C)(C)C)C(=O)NC(CC(=O)OCc1ccccc1)C(=O)OCc1ccccc1` (stereo not drawn) (Boc-Leu-Asp(OBn)-OBn; configuration not given here), for which the GI50 in [1] was 43.2 µM (inactive); in assay [2] it was 20.9 µM (inactive); in assay [3], 30.6 µM (inactive); in assay [4], 37.5 µM (inactive); in assay [5] it was > 100 µM (inactive); in assay [6], 33.5 µM (inactive). Moreover, the GI50 in assay [19] is 19.2 µM (inactive); in assay [7] it was 31 µM (inactive); in assay [8] it was 51.5 µM (inactive); in assay [9], 27.9 µM (inactive); in [10], 22.4 µM (inactive); in assay [11], > 100 µM (inactive). Moreover, the GI50 in assay [12] is 26.1 µM (inactive); in assay [13] it was 31 µM (inactive); in assay [14], 22.4 µM (inactive); in assay [15], 29.4 µM (inactive); in assay [16], 34.2 µM (inactive); in assay [17], 25.5 µM (inactive). Besides, in assay [18], the GI50 was 32.9 µM (inactive).
For `CCOc1cc2c(cc1O)C(N)C[C@@H]1[C@@H]2CC[C@]2(C)[C@@H](O)CC[C@@H]12` (some centres not stated), the GI50 is 52.7 µM (inactive) in assay [1]; 36.7 µM (inactive) in [2]; 25.6 µM (inactive) in assay [3]; 42.7 µM (inactive) in [4]; 54.7 µM (inactive) in assay [5]; 18.8 µM (inactive) in assay [6]. Further, the GI50 in [19] was 26.9 µM (inactive); in assay [7], 33.3 µM (inactive); in assay [9] it was 33.5 µM (inactive); in assay [11], 83.2 µM (inactive); in assay [12], 56.5 µM (inactive); in [13], > 10 µM (inactive). Besides, the GI50 in assay [20] was 42.8 µM (inactive); in [15], 46.7 µM (inactive); in assay [16] it was 34 µM (inactive); in assay [17], 37.9 µM (inactive); in assay [18], 38.6 µM (inactive).
As to `CCOC(CBr)OC1C(=O)OCC1(C)C` (configuration not stated), the GI50 in assay [1], in assay [2], in [3], in assay [4], in assay [5] and in assay [6] was > 100 µM (inactive) throughout. The GI50 in assay [19], in assay [7], in [8], in [9], in assay [11] and in assay [12] was > 100 µM (inactive) in each case. In addition, the GI50 in [20], in assay [14], in [15], in [16], in assay [17] and in assay [18] was > 100 µM (inactive) throughout.
`CC(=O)Oc1c(C)cc2c(c1C)C(C)CN2C(C)=O` (configuration not stated): the GI50 in [1], in [2], in assay [3], in [4], in assay [5] and in assay [6] was > 100 µM (inactive) each time. For the same compound, the GI50 in [19], in assay [7], in assay [9], in assay [10], in assay [11] and in assay [12] was > 100 µM (inactive) each time. The GI50 in [13], in [20], in [14], in [15], in assay [16] and in assay [17] was > 100 µM (inactive) in each case. The GI50 in [18] was > 100 µM (inactive).
As for `CCCCOC(=O)NC(c1ccccc1)C(O)C(=O)OC1C[C@@]2(O)C(OC(=O)c3ccccc3)C3[C@](C)(C(=O)[C@H](OC(C)=O)C(=C1C)C2(C)C)[C@@H](O)C[C@H]1OC[C@@]31OC(C)=O` (some centres not stated), the GI50 was 0.00652 µM (active) in [1]; 0.011 µM (active) in assay [2]; 5.7 µM (inactive) in [3]; 0.00228 µM (active) in [4]; 0.00191 µM (active) in assay [5]; 0.00447 µM (active) in [6]. Moreover, the GI50 was 0.0102 µM (active) in assay [19]; 0.0407 µM (active) in assay [7]; 0.00234 µM (active) in [9]; 0.00906 µM (active) in [10]; 0.0117 µM (active) in assay [11]; 0.0156 µM (active) in assay [12]. Further, the GI50 in assay [13] was 0.00305 µM (active); in assay [14], 0.0157 µM (active); in assay [15], 0.0361 µM (active); in [16], 0.00627 µM (active); in assay [17] it was 0.00807 µM (active).
For `O=C(CCc1ccc(O)c(O)c1)NCCc1cc(O)cc(OCc2ccccc2)c1`, the GI50 is 20.6 µM (inactive) in assay [1]; 17.1 µM (inactive) in assay [2]; 36.5 µM (inactive) in assay [3]; 38.9 µM (inactive) in assay [4]; 45.9 µM (inactive) in [5]; 37 µM (inactive) in [6]. The GI50 in assay [19] is 32.1 µM (inactive); in assay [7] it was 14 µM (inactive); in assay [9] it was 5.14 µM (inactive); in assay [10], 35.8 µM (inactive); in assay [12], 83.4 µM (inactive); in [13], 27.2 µM (inactive). In addition, the GI50 was 44.3 µM (inactive) in assay [20]; 24.9 µM (inactive) in assay [14]; 6.22 µM (inactive) in assay [15]; 25.9 µM (inactive) in assay [16]; 26.6 µM (inactive) in assay [17]; > 100 µM (inactive) in [18].
In the case of `O=C(NO)c1ccc(OCc2cccc(Cl)c2)cc1`, the GI50 in [1] was 7.35 µM (inactive); in assay [2], 5.87 µM (inactive); in assay [3] it was 11.9 µM (inactive); in assay [4] it was 8.45 µM (inactive); in [5], 16.2 µM (inactive); in assay [6], 7.96 µM (inactive). For the same compound, the GI50 in [19] was 12.9 µM (inactive); in [7] it was 2.62 µM (inactive); in assay [9], 3.27 µM (inactive); in assay [10], 4.55 µM (inactive); in assay [11] it was 3.01 µM (inactive); in assay [12] it was 10.2 µM (inactive). Moreover, the GI50 is 8.11 µM (inactive) in [13]; 12.3 µM (inactive) in [20]; 8.89 µM (inactive) in assay [14]; 24.5 µM (inactive) in assay [15]; 5.08 µM (inactive) in [16]; 11.6 µM (inactive) in assay [17]. The GI50 in [18] is 13.6 µM (inactive).
